Patent US20180155344A1, “TRICYCLIC PIPERIDINE COMPOUNDS” (ACTELION PHARMACEUTICALS LTD, priority 2015, published 2018)
Where a name gives a salt, the structure may show the parent alone.

Target: T1, human TPH1 (Homo sapiens, UniProt P17752)
T1 sequence (P17752 1-444): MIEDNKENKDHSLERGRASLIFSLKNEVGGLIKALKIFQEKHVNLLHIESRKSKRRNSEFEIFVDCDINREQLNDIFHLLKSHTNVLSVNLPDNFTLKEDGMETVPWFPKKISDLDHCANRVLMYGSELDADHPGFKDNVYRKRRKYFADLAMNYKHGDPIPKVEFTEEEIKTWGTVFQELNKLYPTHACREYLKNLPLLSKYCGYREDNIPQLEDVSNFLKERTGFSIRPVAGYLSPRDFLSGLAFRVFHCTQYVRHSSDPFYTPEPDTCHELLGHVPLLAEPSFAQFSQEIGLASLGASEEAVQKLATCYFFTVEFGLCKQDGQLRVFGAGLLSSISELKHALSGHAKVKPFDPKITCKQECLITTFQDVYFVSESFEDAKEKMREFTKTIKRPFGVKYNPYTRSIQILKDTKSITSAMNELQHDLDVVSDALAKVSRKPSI
Test: biochemical
How it was run: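 Inhibition is derived from 5-hydroxy-L-tryptophan fluorescence (540 nm emission, 300 nm excitation) after perchloric acid stop, relative to DMSO vehicle. Recombinant full-length human enzyme (40-80 nM) reacts with 40 μM tryptophan plus 100 μM methyltetrahydropterin, pH 7.6 Tris/DTT/catalase, 15° C, 60 min.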

SMILES | IC50 [nM]
O=C(NC1CC1)c1ccc(OCC(=O)N2CCc3nc4ccccn4c3C2c2ccc(OCCO)cc2F)c(Cl)n1 (centres unmarked) [Example 1.22.1, 6-chloro-N-cyclopropyl-5-(2-(1-(2-fluoro-4-(2-hydroxyethoxy)phenyl)-3,4-dihydroimidazo[1,2-a:5,4-c′]dipyridin-2(1H)-yl)-2-oxoethoxy)picolinamide] | 80
CS(=O)(=O)Nc1ccc(OCC(=O)N2CCc3nc4ccccn4c3C2c2ccc(OCCO)cc2F)c(Cl)n1 (centres unmarked) [Example 1.22.2, N-(6-Chloro-5-(2-(1-(2-fluoro-4-(2-hydroxyethoxy)phenyl)-3,4-dihydroimidazo[1,2-a:5,4-c′]dipyridin-2(1H)-yl)-2-oxoethoxy)pyridin-2-yl)methanesulfonamide] | 38
COc1ccc(C2c3c(nc4cc(Cl)ccn34)CCN2C(=O)COc2ccc3ccccc3c2)cc1OC (centres unmarked) [Example 2.1.1, 1-(7-chloro-1-(3,4-dimethoxyphenyl)-3,4-dihydroimidazo[1,2-a:5,4-c′]dipyridin-2(1H)-yl)-2-(naphthalen-2-yloxy)ethan-1-one hydrochloride] | 39
COc1ccc(C2c3c(nc4cc(Cl)ccn34)CCN2C(=O)COc2ccc(CN3CCOCC3)cc2Cl)cc1OC (centres unmarked) [Example 2.1.2, 1-(7-chloro-1-(3,4-dimethoxyphenyl)-3,4-dihydroimidazo[1,2-a:5,4-c′]dipyridin-2(1H)-yl)-2-(2-chloro-4-(morpholinomethyl)phenoxy)ethan-1-one] | 66
COc1ccc(C2c3c(nc4cc(Cl)ccn34)CCN2C(=O)COc2ccc(CO)cc2Cl)cc1OC (centres unmarked) [Example 2.1.3, 1-(7-chloro-1-(3,4-dimethoxyphenyl)-3,4-dihydroimidazo[1,2-a:5,4-c′]dipyridin-2(1H)-yl)-2-(2-chloro-4-(hydroxymethyl)phenoxy)ethan-1-one] | 402
COc1ccc(C2c3c(nc4cc(Cl)ccn34)CCN2C(=O)COc2ccc([N+](=O)[O-])cc2Cl)cc1OC (centres unmarked) [Example 2.1.4, 1-(7-chloro-1-(3,4-dimethoxyphenyl)-3,4-dihydroimidazo[1,2-a:5,4-c′]dipyridin-2(1H)-yl)-2-(2-chloro-4-nitrophenoxy)ethan-1-one] | 390
COc1ccc(C2c3c(nc4cc(Cl)ccn34)CCN2C(=O)COc2ccc(CN3CCOCC3)nc2Cl)cc1OC (centres unmarked) [Example 2.1.5, 1-(7-chloro-1-(3,4-dimethoxyphenyl)-3,4-dihydroimidazo[1,2-a:5,4-c′]dipyridin-2(1H)-yl)-2-((2-chloro-6-(morpholinomethyl)pyridin-3-yl)oxy)ethan-1-one] | 316
COc1ccc(C2c3c(nc4cc(Cl)ccn34)CCN2C(=O)COc2ccc(Cl)cc2Cl)cc1OC (centres unmarked) [Example 2.1.6, 1-(7-chloro-1-(3,4-dimethoxyphenyl)-3,4-dihydroimidazo[1,2-a:5,4-c′]dipyridin-2(1H)-yl)-2-(2,4-dichlorophenoxy)ethan-1-one] | 53
COc1ccc(C2c3c(nc4cc(Cl)ccn34)CCN2C(=O)COc2ccc(N3CCOCC3)cc2Cl)cc1OC (centres unmarked) [Example 2.1.7, 1-(7-chloro-1-(3,4-dimethoxyphenyl)-3,4-dihydroimidazo[1,2-a:5,4-c′]dipyridin-2(1H)-yl)-2-(2-chloro-4-morpholinophenoxy)ethan-1-one] | 34
O=C(COc1ccc(CN2CCOCC2)cc1Cl)N1CCc2nc3cc(Cl)ccn3c2C1c1cccnc1F (centres unmarked) [Example 2.2.1, 1-(7-chloro-1-(2-fluoropyridin-3-yl)-3,4-dihydroimidazo[1,2-a:5,4-c′]dipyridin-2(1H)-yl)-2-(2-chloro-4-(morpholinomethyl)phenoxy)ethan-1-one] | 269
O=C(COc1ccc(N2CCOCC2)cc1Cl)N1CCc2nc3cc(Cl)ccn3c2[C@H]1c1cccnc1F [Example 2.2.2, 1-((1R)-7-chloro-1-(2-fluoropyridin-3-yl)-3,10a-dihydroimidazo[1,2-a:5,4-c′]dipyridin-2(1H)-yl)-2-(2-chloro-4-morpholinophenoxy)ethan-1-one] | 124
